Data as given in patent US9995734B2, “Human T cell line assay for evaluating the immunologic identity of glatiramer acetate preparations” (Mylan Inc., priority 2013, dated 2018).
Values joined by “and” are separate entries in the source; they are usually repeats but may differ in a detail not shown here. Equal entries are not always repeated.

System: Donor 1 COP T-Cell Lines
Assay: Multiplex bead cytokine assay (FlowCytoMix), Donor 1 COP T-cell lines
Type: cell-based, human
Conditions: MBP control antigen, 24 hours after Day 56 restimulation
Procedure: Culture medium was removed from cultures prepared as for proliferation assay and utilized to measure cytokine production. In most cases culture medium was collected 18-24 hours after mixing T-cells, APC, and stimulating antigen. Cytokine production was measured by ELISA or bead assay. For measuring cytokine production, 100-150 μL culture medium (100 μL if culture was to be continued, otherwise 150 μL) was removed from each well. In some cases, the culture was continued 48 hours, for a total of 72 hours of culture, and the proliferative response measured.
The concentration of multiple cytokines was measured simultaneously using FlowCytoMix™ kits (eBioscience, San Diego Calif.). These are fluorescent bead based assays consisting of beads conjugated to anti cytokine antibodies. Beads specific for each cytokine are distinguished by size and fluorescence at 670 run. Cytokine bound to each bead is detected using a phycoerythrin conjugated antibody so that the fluorescence at 585 nm reflects the concentration of cytokine in the sample. Two kits were utilized which measured different cytokine panels. The TH1/TH2 kit measures IFN-γ, IL-1β, IL-2, IL-4, IL-5, IL-6, IL-8, IL-10, IL-12p70, TNF-α (TNF) and TNF-β (LT). The TH1/TH2/TH9/TH17/TH22 kit measures […], IL-1β, IL-2, IL-4, IL-5, IL-6, IL-9, IL-10, IL-12p70, IL-13, IL-17, IL-22, and TNF-α (TNF). Both kits were used following the manufacturer's instructions.
IL-12p70, IFN-γ, IL-2, IL-10, IL-8, IL-6, IL-5, IL-4, IL-1β, TNF-α (TNF), and TNF-β (LT) secretion were measured in response to stimulation with 1, 3, or 10 μg/mL GMA, or 1, 3, or 10 μg/mL COP, as well as a no-antigen control and an MBP control, in the presence of autologous EBV-transformed B-LCL.

## FFKNIVTPRTPPPSQGK [MBP]
222-1C5
  IFN-γ: 64 pg/mL
  IL-2: 0 pg/mL
  IL-5: 0 pg/mL
  IL-10: 0 pg/mL
  IL-13: 82 pg/mL
  IL-22: 36 pg/mL
  TNF-α: 9 pg/mL
222-2B8
  IFN-γ: 0 pg/mL
  IL-2: 0 pg/mL
  IL-5: 0 pg/mL
  IL-10: 0 pg/mL
  IL-13: 26.77 pg/mL
  IL-22: 20.62 pg/mL
  TNF-α: 0 pg/mL
222-2E1
  IFN-γ: 20.69 pg/mL
  IL-2: 42.43 pg/mL
  IL-5: 0 pg/mL
  IL-10: 2.28 pg/mL and 2.3 pg/mL
  IL-13: 51.1 pg/mL
  IL-22: 107.54 pg/mL
  TNF-α: 13.51 pg/mL
222-B11 (so in the source)
  IFN-γ: 0 pg/mL
  IL-2: 0 pg/mL
  IL-5: 0 pg/mL
  IL-10: 0 pg/mL
  IL-13: 0.83 pg/mL
  IL-22: 0 pg/mL
  TNF-α: 0 pg/mL
